Reference: ChEMBL document CHEMBL6127056, “Novel mechanistic insights - A brand new Era for anti-HBV drugs” (Eur J Med Chem, 2024)
Blank lines part the entries; values can stand above or below the compound they belong to. Residues, ends and D or L forms follow the SMILES beside them.

Key:
[1] = molecular target: Lysine-specific demethylase 5B (Homo sapiens, UniProt Q9UGL1); experiment: Inhibition of KDM5B (unknown origin)
[2] = Inhibition of HBV RNA polymerase; design: species or system Hepatitis B virus
Hepatitis B virus [3] = experiment: Antiviral activity against HBV infected in human HepG2.117 cells assessed as reduction in intracellular DNA level by RT-qPCR analysis; type: functional, organism-based
Hepatitis B virus [4] = experiment: Antiviral activity against HBV infected in human Primary hepatocyte assessed as reduction in HBV replication; type: functional, organism-based
Hepatitis B virus [5] = experiment: Antiviral activity against Hepatitis B virus assessed as inhibition of HBV DNA replication; type: functional, organism-based
[6] = molecular target: T1, Hepatic sodium/bile acid cotransporter (Homo sapiens, UniProt Q14973); experiment: Inhibition of NTCP (unknown origin)
T1 sequence (Q14973 whole entry): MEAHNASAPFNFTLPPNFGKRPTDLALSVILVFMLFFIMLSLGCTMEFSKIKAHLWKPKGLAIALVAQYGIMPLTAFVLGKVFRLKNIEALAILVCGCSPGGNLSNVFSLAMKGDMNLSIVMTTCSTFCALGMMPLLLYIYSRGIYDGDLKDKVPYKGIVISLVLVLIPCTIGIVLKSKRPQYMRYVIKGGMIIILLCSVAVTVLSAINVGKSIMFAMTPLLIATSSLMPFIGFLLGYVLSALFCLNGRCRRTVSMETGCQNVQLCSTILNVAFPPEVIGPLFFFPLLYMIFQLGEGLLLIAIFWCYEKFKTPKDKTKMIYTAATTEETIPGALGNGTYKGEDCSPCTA

Hepatitis B virus [7] = experiment: Antiviral activity against HBV infected in human HepG2.2.15 cells; type: functional, organism-based
Hepatitis B virus [8] = experiment: Antiviral activity against wild type HBV infected in HepG2.2.15 cells assessed as reduction in viral replication; type: functional, organism-based
Hepatitis B virus [9] = experiment: Antiviral activity against HBV infected in human HepG2-hNTCP cells assessed as reduction in HBV DNA replication by qRT-PCR analysis; type: functional, organism-based
Hepatitis B virus [10] = experiment: Antiviral activity against HBV infected in human HepG2.2.15 cells assessed as reduction in viral DNA levels incubated for 6 days by PCR analysis; type: functional, organism-based; details: HepG2.2.15, 144 h
Hepatitis B virus [11] = experiment: Antiviral activity against HBV infected in human HePAD38 cells assessed as reduction in viral replication by qPCR analysis; type: functional, organism-based
Hepatitis B virus [12] = experiment: Antiviral activity against HBV infected in human HepG2-NTCP12 cells assessed as inhibition of viral replication; type: functional, organism-based
Hepatitis B virus [13] = experiment: Antiviral activity against HBV infected in human Primary hepatocytes assessed as reduction in HBV DNA level measured after 16 days by ELISA; details: Hepatocyte, 384 h
SRSF protein kinase 1 = SRSF protein kinase 1 (Homo sapiens, UniProt Q96SB4); experiment: Inhibition of SRPK-1 (unknown origin)
Hepatitis B virus [14] = experiment: Antiviral activity against HBV infected in human HepAD38 cells assessed as inhibition of viral replication; type: functional, organism-based
Hepatitis B virus [15] = experiment: Antiviral activity against HBV infected in human HepDES19 cells assessed as inhibition of extracellular HBV DNA by qPCR analysis; type: functional, organism-based
[16] = molecular target: T1, Hepatic sodium/bile acid cotransporter; experiment: Inhibition of NTCP (unknown origin) stably transfected in HEK293 cells; type: cell-based
Hepatitis B virus [17] = experiment: Antiviral activity against Hepatitis B virus ayw1 infected in human HepG2 2.2.15 cells assessed as reduction in viral DNA replication incubated for 6 days by qPCR analysis; type: functional, organism-based; details: ayw1, HepG2 2.2.15, 144 h

Chain of SRSF protein kinase 1 (Q96SB4 whole entry): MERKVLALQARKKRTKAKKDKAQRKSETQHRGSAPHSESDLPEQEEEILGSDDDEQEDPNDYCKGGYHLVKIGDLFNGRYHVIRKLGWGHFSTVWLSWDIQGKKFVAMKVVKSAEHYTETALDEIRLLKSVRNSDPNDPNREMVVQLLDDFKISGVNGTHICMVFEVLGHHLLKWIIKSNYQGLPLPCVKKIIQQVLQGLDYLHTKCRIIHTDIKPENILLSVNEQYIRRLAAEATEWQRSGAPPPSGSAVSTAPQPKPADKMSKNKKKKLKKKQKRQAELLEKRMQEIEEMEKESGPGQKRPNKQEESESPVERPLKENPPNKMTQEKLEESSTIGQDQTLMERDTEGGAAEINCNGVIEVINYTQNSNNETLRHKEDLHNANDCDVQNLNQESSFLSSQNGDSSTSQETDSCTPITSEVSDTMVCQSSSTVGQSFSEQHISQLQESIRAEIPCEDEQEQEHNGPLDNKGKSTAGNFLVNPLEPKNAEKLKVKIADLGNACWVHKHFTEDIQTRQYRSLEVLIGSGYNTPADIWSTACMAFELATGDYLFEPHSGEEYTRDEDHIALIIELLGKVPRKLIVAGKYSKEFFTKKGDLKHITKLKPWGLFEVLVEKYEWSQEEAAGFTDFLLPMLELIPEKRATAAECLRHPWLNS
Chain of Lysine-specific demethylase 5B (Q9UGL1 whole entry): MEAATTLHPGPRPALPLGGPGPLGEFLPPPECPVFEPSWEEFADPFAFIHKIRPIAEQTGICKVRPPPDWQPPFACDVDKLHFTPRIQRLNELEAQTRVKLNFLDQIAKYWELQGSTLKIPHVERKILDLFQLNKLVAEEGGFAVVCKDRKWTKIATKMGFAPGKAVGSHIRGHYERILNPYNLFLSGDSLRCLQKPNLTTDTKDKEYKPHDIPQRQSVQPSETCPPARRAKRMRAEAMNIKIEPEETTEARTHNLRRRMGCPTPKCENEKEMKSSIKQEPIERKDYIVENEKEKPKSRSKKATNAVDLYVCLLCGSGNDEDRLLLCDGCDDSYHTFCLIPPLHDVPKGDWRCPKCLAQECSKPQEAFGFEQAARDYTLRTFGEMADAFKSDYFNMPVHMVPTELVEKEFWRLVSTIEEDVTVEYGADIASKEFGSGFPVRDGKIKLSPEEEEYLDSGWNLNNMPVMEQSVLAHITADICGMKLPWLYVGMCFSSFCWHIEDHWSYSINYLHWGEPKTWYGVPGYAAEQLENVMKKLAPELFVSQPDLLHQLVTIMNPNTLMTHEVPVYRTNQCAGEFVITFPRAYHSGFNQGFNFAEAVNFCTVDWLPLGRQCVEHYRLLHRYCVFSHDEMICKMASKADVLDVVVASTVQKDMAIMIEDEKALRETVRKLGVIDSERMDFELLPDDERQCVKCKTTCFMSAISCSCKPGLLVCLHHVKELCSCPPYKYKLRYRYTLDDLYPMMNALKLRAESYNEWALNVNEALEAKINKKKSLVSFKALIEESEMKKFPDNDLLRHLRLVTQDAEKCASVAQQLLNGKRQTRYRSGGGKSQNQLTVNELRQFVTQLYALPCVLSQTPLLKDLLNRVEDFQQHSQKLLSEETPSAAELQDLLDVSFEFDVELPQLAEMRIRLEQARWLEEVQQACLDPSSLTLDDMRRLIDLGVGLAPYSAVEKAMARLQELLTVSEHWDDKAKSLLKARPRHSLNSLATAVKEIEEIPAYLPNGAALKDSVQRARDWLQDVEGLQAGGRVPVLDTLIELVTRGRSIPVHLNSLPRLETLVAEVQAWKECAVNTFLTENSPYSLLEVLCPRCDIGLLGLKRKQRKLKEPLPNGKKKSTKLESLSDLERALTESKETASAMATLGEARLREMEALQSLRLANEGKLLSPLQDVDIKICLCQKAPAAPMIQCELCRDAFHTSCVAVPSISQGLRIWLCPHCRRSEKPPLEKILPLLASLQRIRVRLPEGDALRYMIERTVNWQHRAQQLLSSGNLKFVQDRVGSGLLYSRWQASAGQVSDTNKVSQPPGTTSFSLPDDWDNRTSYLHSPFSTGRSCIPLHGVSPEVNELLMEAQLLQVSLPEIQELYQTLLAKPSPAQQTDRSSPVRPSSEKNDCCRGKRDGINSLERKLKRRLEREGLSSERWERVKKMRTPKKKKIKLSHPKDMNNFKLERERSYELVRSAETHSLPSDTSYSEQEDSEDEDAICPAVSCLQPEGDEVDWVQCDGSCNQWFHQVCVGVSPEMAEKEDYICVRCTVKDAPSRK

IC50 [1]: 380 nM
Compound: CCN(CCN(C)C)C(=O)CNCc1cc(C(=O)O)ccn1

IC50 [2]: 16700 nM
Compound: CCOC(=O)c1cc(-c2cc(=O)oc3ccccc23)oc1C

EC50 (Hepatitis B virus [3]): > 10000 nM
Compound: Nc1ncnc2c1ncn2[C@@H]1OC[C@](F)(CO)[C@H]1CO

Compound: CNC(=O)C1(NC(=O)C(=O)c2c(C)c(C(=O)Nc3ccc(F)c(F)c3)n3c2CCC3)CC(F)(F)C1
EC50 (Hepatitis B virus [4]): 80 nM

EC50 (Hepatitis B virus [5]): 10000 nM
Compound: CCn1ccnc1-c1c(-c2ccccc2)ncn1CCCc1cccnc1

IC50 [6]: 70 nM
Compound: COc1cc([C@H]2c3cc4c(cc3[C@H](n3cc(CO[C@H]5CC[C@]6(C)[C@H]7CC=C8[C@@H]9CC(C)(C)CC[C@]9(C(=O)O)CC[C@@]8(C)[C@]7(C)CC[C@H]6C5(C)C)nn3)[C@H]3COC(=O)[C@H]23)OCO4)cc(OC)c1OC

EC50 (Hepatitis B virus [7]): 6240 nM
Compound: CCOCCOC(=O)C1=C(C)NC(c2ncc(F)cc2F)=NC1c1ccc(F)cc1C (configuration not stated)

EC50 (Hepatitis B virus [8]): 63700 nM
Compound: O=c1ccc2cc3ccoc3cc2o1 [PSORALEN]

EC50 (Hepatitis B virus [9]): 5130 nM
Compound: COc1cc2c(O[C@@H]3OC[C@](O)(CO[C@@H]4OC[C@@H](O)[C@H](O)[C@H]4O)[C@H]3O[C@@H]3OC[C@H](O)[C@H](O)[C@H]3O)c3c(c(-c4ccc5c(c4)OCO5)c2cc1OC)C(=O)OC3 [CILIATOSIDE A]
EC50 (Hepatitis B virus [4]): 3360 nM

EC50 (Hepatitis B virus [10]): 500 nM
Compound: O=C(Nc1ccc(F)c(Cl)c1)c1cc(S(=O)(=O)NC2CCCC2)cc2c1OCCO2

EC50 (Hepatitis B virus [11]): 22 nM
EC50 (Hepatitis B virus [12]): 27 nM
Compound: CN1[C@H](C(=O)Nc2ccc(F)c(Cl)c2)C[C@H](c2ncc(-c3cn(C)cn3)s2)NS1(=O)=O
EC50 (Hepatitis B virus [13]): 41 nM

Compound: CCc1cc2c(cc1-c1cccc(S(=O)(=O)F)c1)C(C)(C)c1[nH]c3cc(C#N)ccc3c1C2=O
IC50 (SRSF protein kinase 1): 9400 nM

EC50 (Hepatitis B virus [14]): 34 nM
Compound: CCOC(=O)c1ccnc(CNCC(=O)N(CC)CCN(C)C)c1

EC50 (Hepatitis B virus [15]): 24 nM
Compound: CCOC(=O)C1=C(CN2CCN(C(C(=O)O)c3cccc([N+](=O)[O-])c3)CC2)NC(c2nccs2)=NC1c1ccc(F)cc1Br (configuration not stated)

EC50 (Hepatitis B virus [7]): 48.6 µg/mL
Compound: O=c1cc(-c2ccc(O)c(-c3c(O)cc(O)c4c(=O)cc(-c5ccc(O)cc5)oc34)c2)oc2cc(O)cc(O)c12 [AMENTOFLAVONE]

EC50 (Hepatitis B virus [5]): > 10000 nM
Compound: Cc1ccc2[nH]c(CCNc3nccc(-c4ccccn4)n3)nc2c1C

IC50 [6]: 790 nM
Compound: C=C(C)[C@@H]1CC[C@]2(C(=O)NCc3cn([C@H]4c5cc6c(cc5[C@H](c5cc(OC)c(OC)c(OC)c5)[C@H]5C(=O)OC[C@@H]54)OCO6)nn3)CC[C@@]3(C)[C@]4(C)CC[C@H]5C(C)(C)[C@@H](O)CC[C@]5(C)[C@H]4CC[C@]3(C)[C@@H]12

IC50 [16]: 360 nM
Compound: CCC[C@@H]1NC(=O)[C@H](CC(C)C)N(C)C(=O)[C@H](CC(C)C)N(C)C(=O)CN(CCO)C(=O)[C@H](CC(C)C)N(C)C(=O)[C@@H](C)NC(=O)[C@H](CCC(N)=O)NC(=O)[C@H](CC(C)C)N(C)C(=O)[C@H](C(C)C)NC(=O)[C@H](CC(C)C)N(C)C(=O)CN(C)C1=O (HELM PEPTIDE1{[meL].[meL].[Nva].[Sar].[meL].V.[meL].Q.[dA].[meL].[O=C(CN(CCO)[*:1])[*:2]]}$PEPTIDE1,PEPTIDE1,1:R1-11:R2$$$V2.0)

EC50 (Hepatitis B virus [14]): 15600 nM
Compound: Cc1cc(/N=N/c2ccc(S(=O)(=O)Nc3ccccn3)cc2)c(N)cc1O

EC50 (Hepatitis B virus [8]): 42600 nM
Compound: COc1cc(C[C@@H]2CO[C@@H](c3ccc(O)c(OC)c3)[C@@H]2CO)ccc1O [(-)-Lariciresinol]

Compound: Cn1cnc(COC(=O)N[C@H]2CCc3c(C(=O)Nc4ccc(F)c(Cl)c4)ccc(F)c32)n1
EC50 (Hepatitis B virus [4]): 630 nM

EC50 (Hepatitis B virus [5]): 10000 nM
Compound: Cc1nc(-c2c(-c3ccccc3)ncn2Cc2cccc3[nH]ccc23)c[nH]1

EC50 (Hepatitis B virus [17]): 23 nM
Compound: COC(=O)C1=C(C)NC(c2ncc(F)cc2F)=N[C@H]1c1ccc(F)cc1Cl

Compound: CC(C)OC(=O)[C@H](C)NP(=O)(OC[C@@]1(F)CO[C@@H](n2cnc3c(N)ncnc32)[C@@H]1CO)Oc1ccccc1 (some centres not stated)
EC50 (Hepatitis B virus [3]): 80 nM
